Experimental data: US10053462B2, “P2X7 modulators” (Jansssen Pharmaceutica NV, priority 2013, dated 2018)
Read-outs that look alike come from different tables or passages of the source.

Target: P2X7 (Homo sapiens (Human), UniProt Q99572)
Test: P2X7 antagonism in human peripheral blood mononuclear cells (PBMCs), IL-1β release
Type: cell-based
Conditions: LPS 30 ng/ml + Bz-ATP 0.5 mM; for remaining activity at 10 µM: read-out: PBMC 10 μM (% control)
Procedure: P2X7 Antagonism in Human Peripheral Blood Mononuclear Cells (PBMCs) and Human Whole Blood.
Human blood was collected using a blood donor program. PBMCs were isolated from blood using a Ficoll density gradient technique. Briefly, blood was laid on Ficoll solution and centrifuged at RT for 20 minutes at 2000 rpm. The buffy layer (between red blood cells and plasma) was carefully collected by aspiration, washed with PBS and centrifuged again at 1500 rpm for 15 minutes. The resulting cell pellet was washed and plated on 96 well-plates for experiments. For the Human Whole Blood experiments, 150 μl of human blood was platted on 96 well-plates. Lipopolysaccharide (LPS) (30 ng/ml) was added to each well and incubated for 1 hour. Test compounds were then added and incubated for 30 minutes. The P2X7 agonist, 2′(3′)-O-(4-benzoylbenzoyl) adenosine 5′-triphosphate (Bz-ATP) was then added at a final concentration of 0.5 mM (PBMC) or 1 mM (blood). Cells were incubated for an additional 1.5 hours. At that point, supernatant was collected and stored for IL-1β assay using manufacturer's protocol for enzyme-linked immunosorbent assay (ELISA). Data was expressed as percent control, where control is defined as the difference in IL-1β release in LPS+Bz-ATP samples and LPS only samples. Data was plotted as response (% control) versus concentration to generate IC50 values. […] Data are analyzed and graphed on Graphpad Prism 5. For analysis, each concentration point is averaged from triplicate values and the averaged values are plotted on Graphpad Prism.

[1] = P2X7, Table 2 (additional runs), 10 μM compound

Sequence of P2X7 (Q99572 whole entry): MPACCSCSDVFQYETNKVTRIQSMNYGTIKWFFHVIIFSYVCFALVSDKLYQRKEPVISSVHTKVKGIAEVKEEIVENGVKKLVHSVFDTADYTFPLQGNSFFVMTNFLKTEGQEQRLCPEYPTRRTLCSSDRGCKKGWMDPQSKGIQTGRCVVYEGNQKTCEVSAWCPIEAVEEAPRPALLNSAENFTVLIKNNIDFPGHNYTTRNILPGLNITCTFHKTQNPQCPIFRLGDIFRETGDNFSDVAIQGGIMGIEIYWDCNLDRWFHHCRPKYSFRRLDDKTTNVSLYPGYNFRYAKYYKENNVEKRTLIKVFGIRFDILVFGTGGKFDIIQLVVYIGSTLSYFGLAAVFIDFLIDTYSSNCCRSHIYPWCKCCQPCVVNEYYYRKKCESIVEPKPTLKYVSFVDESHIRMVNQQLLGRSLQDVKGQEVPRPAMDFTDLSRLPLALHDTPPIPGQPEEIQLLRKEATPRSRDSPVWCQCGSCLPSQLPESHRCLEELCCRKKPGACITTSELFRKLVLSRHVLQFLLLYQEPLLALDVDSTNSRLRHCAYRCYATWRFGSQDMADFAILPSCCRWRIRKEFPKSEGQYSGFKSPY

O=C(c1cccc(C(F)(F)F)c1Cl)N1[C@H]2CCC[C@@H]1c1nnc(-c3ncccn3)n1C2 (stereo in doubt) [Example 2, (6S*,10R*)-11-{[2-Chloro-3-(trifluoromethyl)phenyl]carbonyl}-3-pyrimidin-2-yl-5,6,7,8,9,10-hexahydro-6,10-epimino[1,2,4]triazolo[4,3-a]azocine]
remaining activity at 10 µM (P2X7, Table 1, 10 μM compound): 45.7% | remaining activity at 10 µM [1]: 45.7%

O=C(c1cccc(C(F)(F)F)c1Cl)N1[C@@H]2CCC[C@H]1c1nnc(-c3ncccn3)n1C2 (stereo in doubt) [Example 3, (6R*,10S*)-11-{[2-Chloro-3-(trifluoromethyl)phenyl]carbonyl}-3-pyrimidin-2-yl-5,6,7,8,9,10-hexahydro-6,10-epimino[1,2,4]triazolo[4,3-a]azocine]
remaining activity at 10 µM (P2X7, Table 1, 10 μM compound): 8.9% | remaining activity at 10 µM [1]: 8.9%

O=C(c1cccc(C(F)(F)F)c1Cl)N1[C@H]2CCC[C@@H]1c1nnc(-c3ccc(F)cc3)n1C2 (stereo in doubt) [Example 5, (6S*,10R*)-11-{[2-Chloro-3-(trifluoromethyl)phenyl]carbonyl}-3-(4-fluorophenyl)-5,6,7,8,9,10-hexahydro-6,10-epimino[1,2,4]triazolo[4,3-a]azocine]
remaining activity at 10 µM (P2X7, Table 1, 10 μM compound): -4.4% | remaining activity at 10 µM [1]: -4.4%

O=C(c1cccc(C(F)(F)F)c1Cl)N1[C@H]2CCC[C@@H]1c1nnc(-c3cscn3)n1C2 (stereo in doubt) [Example 8, (6S*,10R*)-11-{[2-Chloro-3-(trifluoromethyl)phenyl]carbonyl}-3-(1,3-thiazol-4-yl)-5,6,7,8,9,10-hexahydro-6,10-epimino[1,2,4]triazolo[4,3-a]azocine]
remaining activity at 10 µM (P2X7, Table 1, 10 μM compound): 7.3% | remaining activity at 10 µM [1]: 7.3%

O=C(c1cccc(C(F)(F)F)c1Cl)N1[C@@H]2CCC[C@H]1c1nnc(-c3cscn3)n1C2 (stereo in doubt) [Example 9, (6R*,10S*)-11-{[2-Chloro-3-(trifluoromethyl)phenyl]carbonyl}-3-(1,3-thiazol-4-yl)-5,6,7,8,9,10-hexahydro-6,10-epimino[1,2,4]triazolo[4,3-a]azocine]
remaining activity at 10 µM (P2X7, Table 1, 10 μM compound): 7.3% | remaining activity at 10 µM [1]: 7.3%

O=C(c1cccc(C(F)(F)F)c1Cl)N1[C@H]2CCC[C@@H]1c1nnc(-c3ccc(F)cn3)n1C2 (stereo in doubt) [Example 11, (6S*,10R*)-11-{[2-Chloro-3-(trifluoromethyl)phenyl]carbonyl}-3-(5-fluoropyridin-2-yl)-5,6,7,8,9,10-hexahydro-6,10-epimino[1,2,4]triazolo[4,3-a]azocine]
remaining activity at 10 µM (P2X7, Table 1, 10 μM compound): 38.9% | remaining activity at 10 µM [1]: 38.9%

O=C(c1cccc(C(F)(F)F)c1Cl)N1[C@@H]2CCC[C@H]1c1nnc(-c3ccc(F)cn3)n1C2 (stereo in doubt) [Example 12, (6R*,10S*)-11-{[2-Chloro-3-(trifluoromethyl)phenyl]carbonyl}-3-(5-fluoropyridin-2-yl)-5,6,7,8,9,10-hexahydro-6,10-epimino[1,2,4]triazolo[4,3-a]azocine]
remaining activity at 10 µM (P2X7, Table 1, 10 μM compound): -0.8% | remaining activity at 10 µM [1]: 3.6%

O=C(c1cccc(C(F)(F)F)c1Cl)N1[C@H]2CCC[C@@H]1c1nnc(-c3cccnc3)n1C2 (stereo in doubt) [Example 14, (6S*,10R*)-11-{[2-Chloro-3-(trifluoromethyl)phenyl]carbonyl}-3-pyridin-3-yl-5,6,7,8,9,10-hexahydro-6,10-epimino[1,2,4]triazolo[4,3-a]azocine]
remaining activity at 10 µM (P2X7, Table 1, 10 μM compound): 2.4% | remaining activity at 10 µM [1]: 2.4%

O=C(c1cccc(C(F)(F)F)c1Cl)N1[C@@H]2CCC[C@H]1c1nnc(-c3ncc(F)cn3)n1C2 (stereo in doubt) [Example 18, (6R*,10S*)-11-{[2-Chloro-3-(trifluoromethyl)phenyl]carbonyl}-3-(5-fluoropyrimidin-2-yl)-5,6,7,8,9,10-hexahydro-6,10-epimino[1,2,4]triazolo[4,3-a]azocine]
remaining activity at 10 µM (P2X7, Table 1, 10 μM compound): -9% | remaining activity at 10 µM [1]: -9%

O=C(c1ccc(Cl)cc1Cl)N1[C@@H]2CCC[C@H]1c1nnc(-c3ncc(F)cn3)n1C2 (stereo in doubt) [Example 21, (6R*,10S*)-11-[(2,4-Dichlorophenyl)carbonyl]-3-(5-fluoropyrimidin-2-yl)-5,6,7,8,9,10-hexahydro-6,10-epimino[1,2,4]triazolo[4,3-a]azocine]
remaining activity at 10 µM (P2X7, Table 1, 10 μM compound): -2.1% | remaining activity at 10 µM [1]: -2.1%

Cc1cccc(-c2nnc3n2C[C@@H]2CCC[C@H]3N2C(=O)c2cccc(C(F)(F)F)c2Cl)n1 (stereo in doubt) [Example 23, (6S*,10R*)-11-{[2-Chloro-3-(trifluoromethyl)phenyl]carbonyl}-3-(6-methylpyridin-2-yl)-5,6,7,8,9,10-hexahydro-6,10-epimino[1,2,4]triazolo[4,3-a]azocine]
remaining activity at 10 µM (P2X7, Table 1, 10 μM compound): 8% | remaining activity at 10 µM [1]: 8%

Cc1cccc(-c2nnc3n2C[C@H]2CCC[C@@H]3N2C(=O)c2cccc(C(F)(F)F)c2Cl)n1 (stereo in doubt) [Example 24, (6R*,10S*)-11-{[2-Chloro-3-(trifluoromethyl)phenyl]carbonyl}-3-(6-methylpyridin-2-yl)-5,6,7,8,9,10-hexahydro-6,10-epimino[1,2,4]triazolo[4,3-a]azocine]
remaining activity at 10 µM (P2X7, Table 1, 10 μM compound): 32.7% | remaining activity at 10 µM [1]: 32.7%

COc1ccnc(-c2nnc3n2C[C@@H]2CCC[C@H]3N2C(=O)c2cccc(C(F)(F)F)c2Cl)c1 (stereo in doubt) [Example 26, (6S*,10R*)-11-{[2-Chloro-3-(trifluoromethyl)phenyl]carbonyl}-3-(4-methoxypyridin-2-yl)-5,6,7,8,9,10-hexahydro-6,10-epimino[1,2,4]triazolo[4,3-a]azocine]
remaining activity at 10 µM (P2X7, Table 1, 10 μM compound): 9.2% | remaining activity at 10 µM [1]: 9.2%

COc1ccnc(-c2nnc3n2C[C@H]2CCC[C@@H]3N2C(=O)c2cccc(C(F)(F)F)c2Cl)c1 (stereo in doubt) [Example 27, (6R*,10S*)-11-{[2-Chloro-3-(trifluoromethyl)phenyl]carbonyl}-3-(4-methoxypyridin-2-yl)-5,6,7,8,9,10-hexahydro-6,10-epimino[1,2,4]triazolo[4,3-a]azocine]
remaining activity at 10 µM (P2X7, Table 1, 10 μM compound): 4.8% | remaining activity at 10 µM [1]: 4.8%

O=C(c1ccnc(C(F)(F)F)c1Cl)N1[C@H]2CCC[C@@H]1c1nnc(-c3cccs3)n1C2 (stereo in doubt) [Example 35, (6S*,10R*)-11-{[3-Chloro-2-(trifluoromethyl)pyridin-4-yl]carbonyl}-3-thiophen-2-yl-5,6,7,8,9,10-hexahydro-6,10-epimino[1,2,4]triazolo[4,3-a]azocine]
remaining activity at 10 µM [1]: 82.2% | PBMC 10 μM (% control) (Table 1, 10 μM compound): 82.2 % control

O=C(c1ccnc(C(F)(F)F)c1Cl)N1[C@@H]2CCC[C@H]1c1nnc(-c3cccs3)n1C2 (stereo in doubt) [Example 36, (6R*,10S*)-11-{[3-Chloro-2-(trifluoromethyl)pyridin-4-yl]carbonyl}-3-thiophen-2-yl-5,6,7,8,9,10-hexahydro-6,10-epimino[1,2,4]triazolo[4,3-a]azocine]
remaining activity at 10 µM (P2X7, Table 1, 10 μM compound): -1.2% | remaining activity at 10 µM [1]: -1.2%

Cc1ccc(-c2nnc3n2C[C@H]2CCC[C@@H]3N2C(=O)c2ccnc(C(F)(F)F)c2Cl)s1 (stereo in doubt) [Example 39, (6R*,10S*)-11-{[3-Chloro-2-(trifluoromethyl)pyridin-4-yl]carbonyl}-3-(5-methylthiophen-2-yl)-5,6,7,8,9,10-hexahydro-6,10-epimino[1,2,4]triazolo[4,3-a]azocine]
remaining activity at 10 µM (P2X7, Table 1, 10 μM compound): 5.8% | remaining activity at 10 µM [1]: 5.8%

Cc1nc(-c2nnc3n2C[C@H]2CCC[C@@H]3N2C(=O)c2cccc(C(F)(F)F)c2Cl)ccc1F (stereo in doubt) [Example 193, (6R,10S)-11-{[2-Chloro-3-(trifluoromethyl)phenyl]carbonyl}-3-(5-fluoro-6-methylpyridin-2-yl)-5,6,7,8,9,10-hexahydro-6,10-epimino[1,2,4]triazolo[4,3-a]azocine]
remaining activity at 10 µM [1]: -13.8%

Cc1ccnc(-c2nnc3n2C[C@H]2CCC[C@@H]3N2C(=O)c2cccc(C(F)(F)F)c2Cl)c1 (stereo in doubt) [Example 194, (6R,10S)-11-{[2-Chloro-3-(trifluoromethyl)phenyl]carbonyl}-3-(4-methylpyridin-2-yl)-5,6,7,8,9,10-hexahydro-6,10-epimino[1,2,4]triazolo[4,3-a]azocine]
remaining activity at 10 µM [1]: -13%

O=C(c1cccc(C(F)(F)F)c1Cl)N1[C@@H]2CCC[C@H]1c1nnc(-c3cccnn3)n1C2 (stereo in doubt) [Example 195, (6R,10S)-11-{[2-Chloro-3-(trifluoromethyl)phenyl]carbonyl}-3-pyridazin-3-yl-5,6,7,8,9,10-hexahydro-6,10-epimino[1,2,4]triazolo[4,3-a]azocine]
remaining activity at 10 µM [1]: 11.2%
